According to ChEMBL document CHEMBL1148257, “The significant effect of the carbohydrate structures on the DNA photocleavage of the quinoxaline-carbohydrate hybrids” (Bioorg Med Chem Lett, 2004):

Assays:
Nucleic Acid = experiment: Concentrations of compound at which 50% Form I DNA was converted into Form II DNA of Phi X 174; type: functional
HeLa [1] = experiment: Cytotoxicity of compound against HeLa S3 cells exposed to compound for 72 hr with 1 hr photoirradiation; details: Homo sapiens, light or radiation study
HeLa [2] = experiment: Cytotoxicity of compound against HeLa S3 cells without photoirradiation; type: functional, cell-based; details: Homo sapiens, light or radiation study

Structure (SMILES) | CC50 (Nucleic Acid) [µM] | IC50 (HeLa [1]) [µM] | IC50 (HeLa [2]) [µM]
CC1O[C@H](OC2C(O)C[C@H](OCCOC(=O)c3cnc4ccccc4n3)OC2C)CC(N)C1O (some centres undefined) | 43 | 6 | > 100
CC1O[C@H](OC2C(O)C[C@@H](OCCOC(=O)c3cnc4ccccc4n3)OC2C)CC(N)C1O (some centres undefined) | 160 | – | –
